Values joined by “and” are separate entries in the source; they are usually repeats but may differ in a detail not shown here. Equal values may be shown once.
system: U87-MG (glioblastoma); experiment: Cell uptake assay in U87-MG cells; type: cell-based, human; conditions: 0.1 mM, 1 h
Experimental: (§1) • 1.1.1 15 mL of cell culture medium was placed into a T225 flask. • 1.1.2 The flask was placed in a humidified 37° C., 5% CO2 incubator for 15 minutes to allow medium to equilibrate to the proper pH and temperature. • 1.1.3 The vial was removed from liquid nitrogen and thawed rapidly by placing at 37° C. in a water bath with gentle agitation for 1-2 minutes and then decontaminated by wiping with 70% ethanol before opening in a Class II biological safety cabinet. • 1.1.4 The vial contents were transferred dropwise into 10 mL of cell culture medium in a sterile 15 mL conical tube. • 1.1.5 The cells were centrifuged at 1,300 rpm for 5 minutes. • 1.1.6 The supernatant was aspirated and re-suspended the cells and transferred the cells into T225 flask containing cell culture medium.
(§2) • 1.2.1 Culture medium were renewed every 2-3 days. • 1.2.2 Keep the flask in a humidified 37° C., 5% CO2 incubator
Cells were harvested and diluted in culture medium to the designated concentration. Then the cells were cultured in T25 flasks, one T25 flask for one sample. 2.2 Formulation of test compounds • 2.2.1 L-Boronophenylalanine (L-BPA, 4-boron-L-phenylalanine, Purity: 95%, Chemical formula: C9H12BNO4, MW: 209.01, CAS: 76410-58-7) and fructose were dissolved in PBS at a molar ratio of 1:5, and then a 1.27 M ratio of 1 N NaOH is added. The mixture was stirred until L-BPA is completely dissolved, and the pH value was titrated to 7.2-7.4 with 1N HCl. • 2.2.2 For test compounds other than BPA, stock solutions were prepared of each compound in DMSO or fructose formulation at a concentration of 20 mM (such that final % DMSO in the cellular assay medium=0.5%) […]

| SMILES | Cell uptake, Mean (ng/10^6 cell), U87-MG |
| --- | --- |
| N[C@@H](Cc1ccc(F)c(B(O)O)c1O)C(=O)O [Compound 4, (2S)-2-amino-3-[3-(dihydroxyboranyl)-4-fluoro-2-hydroxyphenyl]propanoic acid] | 14.3 ng/10^6 cell |
| N[C@@H](Cc1cc(Cl)cc(B(O)O)c1O)C(=O)O [Compound 6, (2S)-2-amino-3-[5-chloro-3-(dihydroxyboranyl)-2-hydroxyphenyl]propanoic acid] | 58.6 ng/10^6 cell |
| N[C@@H](Cc1cc(F)cc(B(O)O)c1O)C(=O)O [Compound 8, (2S)-2-amino-3-13-(dihydroxyboranyl)-5-fluoro-2-hydroxyphenyllpropanoic acid] | 173 ng/10^6 cell |
| N[C@@H](Cc1ccc(B(O)O)cc1)C(=O)O [L-BPA, 4-Borono-L-phenylalanine] | 391 ng/10^6 cell and 343 ng/10^6 cell and 233 ng/10^6 cell and 196 ng/10^6 cell and 297 ng/10^6 cell |

same assay, conditions: 0.1 mM, 2 h

| SMILES | Cell uptake, Mean (ng/10^6 cell), U87-MG [ng/10^6 cell] |
| --- | --- |
| N[C@@H](Cc1ccc(B(O)O)cc1)C(=O)O [L-BPA, 4-Borono-L-phenylalanine] | 223 |

same assay, conditions: 0.1 mM, 4 h

| SMILES | Cell uptake, Mean (ng/10^6 cell), U87-MG [ng/10^6 cell] |
| --- | --- |
| N[C@@H](Cc1ccc(F)c(B(O)O)c1O)C(=O)O [Compound 4, (2S)-2-amino-3-[3-(dihydroxyboranyl)-4-fluoro-2-hydroxyphenyl]propanoic acid] | 40 |
| N[C@@H](Cc1cc(Cl)cc(B(O)O)c1O)C(=O)O [Compound 6, (2S)-2-amino-3-[5-chloro-3-(dihydroxyboranyl)-2-hydroxyphenyl]propanoic acid] | 171 |
| N[C@@H](Cc1cc(F)cc(B(O)O)c1O)C(=O)O [Compound 8, (2S)-2-amino-3-13-(dihydroxyboranyl)-5-fluoro-2-hydroxyphenyllpropanoic acid] | 505 |

same assay, conditions: 0.1 mM, 24 h

| SMILES | Cell uptake, Mean (ng/10^6 cell), U87-MG [ng/10^6 cell] |
| --- | --- |
| N[C@@H](Cc1ccc(F)c(B(O)O)c1O)C(=O)O [Compound 4, (2S)-2-amino-3-[3-(dihydroxyboranyl)-4-fluoro-2-hydroxyphenyl]propanoic acid] | 117 |
| N[C@@H](Cc1cc(Cl)cc(B(O)O)c1O)C(=O)O [Compound 6, (2S)-2-amino-3-[5-chloro-3-(dihydroxyboranyl)-2-hydroxyphenyl]propanoic acid] | 244 |
| N[C@@H](Cc1cc(F)cc(B(O)O)c1O)C(=O)O [Compound 8, (2S)-2-amino-3-13-(dihydroxyboranyl)-5-fluoro-2-hydroxyphenyllpropanoic acid] | 545 |

system: NIH-3T3 (normal cell line); experiment: Cell uptake assay in NIH-3T3 cells; type: cell-based, mouse; conditions: 0.1 mM, 1 h
Experimental: as §1, §2
(§3) Cells were harvested and diluted in culture medium to the designated concentration. Then the cells were cultured in T25 flasks, one T25 flask for one sample. 2.2 Formulation of test compounds • 2.2.1 L-Boronophenylalanine (L-BPA, 4-boron-L-phenylalanine, Purity: 95%, Chemical formula: C9H12BNO4, MW: 209.01, CAS: 76410-58-7) and fructose were dissolved in PBS at a molar ratio of 1:5, and then a 1.27 M ratio of 1 N NaOH is added. The mixture was stirred until L-BPA is completely dissolved, and the pH value was titrated to 7.2-7.4 with 1N HCl. • 2.2.2 For test compounds other than BPA, stock solutions were prepared of each compound in DMSO or fructose formulation at a concentration of 20 mM (such that final % DMSO in the cellular assay medium=0.5%)
(§4) • 2.3.1 The cells were seeded overnight (12-18 hours) to allow the cells to adhere well. • 2.3.2 The stock solution of each compound was added to each T25 flask such that the final concentration for each compound is 100 uM (0.1 mM). • 2.3.3 The flasks were placed in a 37° C., […] for 1 hour, 4 hour, and 24 hours, the cells were collected by using 0.25% Trypsin with 0.53 mM EDTA. 2.3.5 Centrifuged at 1,300 rpm for 5 min to collect cell pellets.

| SMILES | Cell uptake, Mean (ng/10^6 cell), NIH-3T3 [ng/10^6 cell] |
| --- | --- |
| N[C@@H](Cc1ccc(F)c(B(O)O)c1O)C(=O)O [Compound 4, (2S)-2-amino-3-[3-(dihydroxyboranyl)-4-fluoro-2-hydroxyphenyl]propanoic acid] | 28.3 |
| N[C@@H](Cc1cc(Cl)cc(B(O)O)c1O)C(=O)O [Compound 6, (2S)-2-amino-3-[5-chloro-3-(dihydroxyboranyl)-2-hydroxyphenyl]propanoic acid] | 20.3 |
| N[C@@H](Cc1cc(F)cc(B(O)O)c1O)C(=O)O [Compound 8, (2S)-2-amino-3-13-(dihydroxyboranyl)-5-fluoro-2-hydroxyphenyllpropanoic acid] | 51.7 |

same assay, conditions: 0.1 mM, 2 h

| SMILES | Cell uptake, Mean (ng/10^6 cell), NIH-3T3 [ng/10^6 cell] |
| --- | --- |
| N[C@@H](Cc1ccc(B(O)O)cc1)C(=O)O [L-BPA, 4-Borono-L-phenylalanine] | 177 |

same assay, conditions: 0.1 mM, 4 h

| SMILES | Cell uptake, Mean (ng/10^6 cell), NIH-3T3 [ng/10^6 cell] |
| --- | --- |
| N[C@@H](Cc1ccc(F)c(B(O)O)c1O)C(=O)O [Compound 4, (2S)-2-amino-3-[3-(dihydroxyboranyl)-4-fluoro-2-hydroxyphenyl]propanoic acid] | 36.9 |
| N[C@@H](Cc1cc(Cl)cc(B(O)O)c1O)C(=O)O [Compound 6, (2S)-2-amino-3-[5-chloro-3-(dihydroxyboranyl)-2-hydroxyphenyl]propanoic acid] | 59.8 |
| N[C@@H](Cc1cc(F)cc(B(O)O)c1O)C(=O)O [Compound 8, (2S)-2-amino-3-13-(dihydroxyboranyl)-5-fluoro-2-hydroxyphenyllpropanoic acid] | 119 |

same assay, conditions: 0.1 mM, 24 h

| SMILES | Cell uptake, Mean (ng/10^6 cell), NIH-3T3 [ng/10^6 cell] |
| --- | --- |
| N[C@@H](Cc1ccc(F)c(B(O)O)c1O)C(=O)O [Compound 4, (2S)-2-amino-3-[3-(dihydroxyboranyl)-4-fluoro-2-hydroxyphenyl]propanoic acid] | 55.3 |
| N[C@@H](Cc1cc(Cl)cc(B(O)O)c1O)C(=O)O [Compound 6, (2S)-2-amino-3-[5-chloro-3-(dihydroxyboranyl)-2-hydroxyphenyl]propanoic acid] | 50.8 |
| N[C@@H](Cc1cc(F)cc(B(O)O)c1O)C(=O)O [Compound 8, (2S)-2-amino-3-13-(dihydroxyboranyl)-5-fluoro-2-hydroxyphenyllpropanoic acid] | 101 |

system: B16F10 (melanoma); experiment: Cell uptake assay in B16F10 cells; type: cell-based, mouse; conditions: 0.1 mM, 1 h
Experimental: as §1, §2, §3, §4

| SMILES | Cell uptake, Mean (ng/10^6 cell), B16F10 [ng/10^6 cell] |
| --- | --- |
| N[C@@H](Cc1ccc(F)c(B(O)O)c1O)C(=O)O [Compound 4, (2S)-2-amino-3-[3-(dihydroxyboranyl)-4-fluoro-2-hydroxyphenyl]propanoic acid] | 29.5 |
| N[C@@H](Cc1cc(Cl)cc(B(O)O)c1O)C(=O)O [Compound 6, (2S)-2-amino-3-[5-chloro-3-(dihydroxyboranyl)-2-hydroxyphenyl]propanoic acid] | 39.6 |
| N[C@@H](Cc1cc(F)cc(B(O)O)c1O)C(=O)O [Compound 8, (2S)-2-amino-3-13-(dihydroxyboranyl)-5-fluoro-2-hydroxyphenyllpropanoic acid] | 115 |

same assay, conditions: 0.1 mM, 2 h

| SMILES | Cell uptake, Mean (ng/10^6 cell), B16F10 [ng/10^6 cell] |
| --- | --- |
| N[C@@H](Cc1ccc(B(O)O)cc1)C(=O)O [L-BPA, 4-Borono-L-phenylalanine] | 986 |

same assay, conditions: 0.1 mM, 4 h

| SMILES | Cell uptake, Mean (ng/10^6 cell), B16F10 |
| --- | --- |
| N[C@@H](Cc1ccc(F)c(B(O)O)c1O)C(=O)O [Compound 4, (2S)-2-amino-3-[3-(dihydroxyboranyl)-4-fluoro-2-hydroxyphenyl]propanoic acid] | 39.1 ng/10^6 cell |
| N[C@@H](Cc1cc(Cl)cc(B(O)O)c1O)C(=O)O [Compound 6, (2S)-2-amino-3-[5-chloro-3-(dihydroxyboranyl)-2-hydroxyphenyl]propanoic acid] | 75.9 ng/10^6 cell |
| N[C@@H](Cc1cc(F)cc(B(O)O)c1O)C(=O)O [Compound 8, (2S)-2-amino-3-13-(dihydroxyboranyl)-5-fluoro-2-hydroxyphenyllpropanoic acid] | 185 ng/10^6 cell |
| N[C@@H](Cc1ccc(B(O)O)cc1)C(=O)O [L-BPA, 4-Borono-L-phenylalanine] | 247 ng/10^6 cell and 224 ng/10^6 cell and 188 ng/10^6 cell and 191 ng/10^6 cell and 185 ng/10^6 cell |

same assay, conditions: 0.1 mM, 24 h

| SMILES | Cell uptake, Mean (ng/10^6 cell), B16F10 [ng/10^6 cell] |
| --- | --- |
| N[C@@H](Cc1ccc(F)c(B(O)O)c1O)C(=O)O [Compound 4, (2S)-2-amino-3-[3-(dihydroxyboranyl)-4-fluoro-2-hydroxyphenyl]propanoic acid] | 48.1 |
| N[C@@H](Cc1cc(Cl)cc(B(O)O)c1O)C(=O)O [Compound 6, (2S)-2-amino-3-[5-chloro-3-(dihydroxyboranyl)-2-hydroxyphenyl]propanoic acid] | 222 |
| N[C@@H](Cc1cc(F)cc(B(O)O)c1O)C(=O)O [Compound 8, (2S)-2-amino-3-13-(dihydroxyboranyl)-5-fluoro-2-hydroxyphenyllpropanoic acid] | 615 |

system: SAS (head & neck cancer); experiment: Cell uptake assay in SAS cells; type: cell-based, human; conditions: 0.1 mM, 1 h
Experimental: as §1, §2, §3, §4

| SMILES | Cell uptake, Mean (ng/10^6 cell), SAS |
| --- | --- |
| N[C@@H](Cc1ccc(F)c(B(O)O)c1O)C(=O)O [Compound 4, (2S)-2-amino-3-[3-(dihydroxyboranyl)-4-fluoro-2-hydroxyphenyl]propanoic acid] | 33.1 ng/10^6 cell |
| N[C@@H](Cc1cc(Cl)cc(B(O)O)c1O)C(=O)O [Compound 6, (2S)-2-amino-3-[5-chloro-3-(dihydroxyboranyl)-2-hydroxyphenyl]propanoic acid] | 373 ng/10^6 cell |
| N[C@@H](Cc1cc(F)cc(B(O)O)c1O)C(=O)O [Compound 8, (2S)-2-amino-3-13-(dihydroxyboranyl)-5-fluoro-2-hydroxyphenyllpropanoic acid] | 561 ng/10^6 cell |
| N[C@@H](Cc1ccc(B(O)O)cc1)C(=O)O [L-BPA, 4-Borono-L-phenylalanine] | 425 ng/10^6 cell and 407 ng/10^6 cell and 260 ng/10^6 cell and 254 ng/10^6 cell and 218 ng/10^6 cell |

same assay, conditions: 0.1 mM, 2 h

| SMILES | Cell uptake, Mean (ng/10^6 cell), SAS [ng/10^6 cell] |
| --- | --- |
| N[C@@H](Cc1ccc(B(O)O)cc1)C(=O)O [L-BPA, 4-Borono-L-phenylalanine] | 394 |

same assay, conditions: 0.1 mM, 4 h

| SMILES | Cell uptake, Mean (ng/10^6 cell), SAS |
| --- | --- |
| N[C@@H](Cc1ccc(F)c(B(O)O)c1O)C(=O)O [Compound 4, (2S)-2-amino-3-[3-(dihydroxyboranyl)-4-fluoro-2-hydroxyphenyl]propanoic acid] | 191 ng/10^6 cell |
| N[C@@H](Cc1cc(Cl)cc(B(O)O)c1O)C(=O)O [Compound 6, (2S)-2-amino-3-[5-chloro-3-(dihydroxyboranyl)-2-hydroxyphenyl]propanoic acid] | 796 ng/10^6 cell |
| N[C@@H](Cc1cc(F)cc(B(O)O)c1O)C(=O)O [Compound 8, (2S)-2-amino-3-13-(dihydroxyboranyl)-5-fluoro-2-hydroxyphenyllpropanoic acid] | 693 ng/10^6 cell |
| N[C@@H](Cc1ccc(B(O)O)cc1)C(=O)O [L-BPA, 4-Borono-L-phenylalanine] | 379 ng/10^6 cell and 352 ng/10^6 cell and 251 ng/10^6 cell and 219 ng/10^6 cell and 217 ng/10^6 cell |

same assay, conditions: 0.1 mM, 24 h

| SMILES | Cell uptake, Mean (ng/10^6 cell), SAS |
| --- | --- |
| N[C@@H](Cc1ccc(F)c(B(O)O)c1O)C(=O)O [Compound 4, (2S)-2-amino-3-[3-(dihydroxyboranyl)-4-fluoro-2-hydroxyphenyl]propanoic acid] | 886 ng/10^6 cell |
| N[C@@H](Cc1cc(Cl)cc(B(O)O)c1O)C(=O)O [Compound 6, (2S)-2-amino-3-[5-chloro-3-(dihydroxyboranyl)-2-hydroxyphenyl]propanoic acid] | 1735 ng/10^6 cell |
| N[C@@H](Cc1cc(F)cc(B(O)O)c1O)C(=O)O [Compound 8, (2S)-2-amino-3-13-(dihydroxyboranyl)-5-fluoro-2-hydroxyphenyllpropanoic acid] | 1605 ng/10^6 cell |
| N[C@@H](Cc1ccc(B(O)O)cc1)C(=O)O [L-BPA, 4-Borono-L-phenylalanine] | 423 ng/10^6 cell and 444 ng/10^6 cell and 501 ng/10^6 cell and 261 ng/10^6 cell and 345 ng/10^6 cell and 336 ng/10^6 cell |
